Reference: patent publication US9982005B2, “Macrolides and methods of their preparation and use” (President and Fellows of Harvard College, priority 2013, dated 2018)
Converted amounts (≈) assume the structure as drawn. Like-named read-outs stand apart in the source and are kept apart here.

Tests used:
Format in all cases: cell-based
[1] = system: S. aureus (Newman, clinical isolate); experiment: MIC, S. aureus Newman; details: Staphylococcus aureus
From the text: (§1) We have collected MIC data for a total of 50 novel macrolides that this platform has produced against over 21 unique strains of B. subtilis, E. coli, S. aureus, S. pneumoniae, and H. influenzae, including several multidrug-resistant strains, with a special focus on macrolide resistant mechanisms (vide supra). Azithromycin was included as a control macrolide. CLSI standard procedures for broth dilution MIC determination were used. […] These genotypes can be constitutive or inducible. The finding that C4-epi (unnatural) isomers of the “azaketolide” macrolide class have enhanced activities relative to C4 natural isomers is very exciting.

E. coli (MC4100) = experiment: MIC, E. coli MC4100; details: Escherichia coli
From the text: as §1

E. coli strains = experiment: MIC against E. coli strains (Table M7); details: Escherichia coli, ATCC25922, E. coli ATCC 25922
Method in brief: (§2)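 An azithromycin control accompanied the test macrolides, which were assayed by CLSI-standard broth microdilution-type MIC determination. Some strains carry constitutive or inducible macrolide-resistance genotypes.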

S. aureus strains = experiment: MIC against S. aureus strains (Table M7); details: Staphylococcus aureus
Method in brief: as §2

S. pneumoniae strains = experiment: MIC against S. pneumoniae strains (Tables M7, M8); details: Streptococcus pneumoniae
From the text: CLSI standard procedures for broth dilution MIC determination were used. […] These genotypes can be constitutive or inducible.

E. faecalis strains = experiment: MIC against E. faecalis strains (Table M8); details: Enterococcus faecalis, E. faecalis 29212
A. baumannii strains = experiment: MIC against A. baumannii strains (Table M8); details: Acinetobacter baumannii, BAA747, A. baumannii BAA747-1
K. pneumoniae strains = experiment: MIC against K. pneumoniae strains (Table M8); details: Klebsiella pneumoniae, K. pneumoniae 10031
H. influenzae strains = experiment: MIC against H. influenzae strains (Table M8); details: Haemophilus influenzae
Method in brief: as §2

[2] = system: SA101 S. aureus ATCC29213; experiment: broth dilution MIC, S. aureus SA101; details: Staphylococcus aureus, ATCC29213, SA101 S. aureus ATCC29213; read-out: MIC
From the text: as §1

EC107 E. coli ATCC25922 = experiment: broth dilution MIC, E. coli EC107; details: Escherichia coli, read-out: MIC
From the text: as §1

EC878 E. coli tolC = experiment: broth dilution MIC, E. coli EC878; details: Escherichia coli
From the text: as §1

EC882 E. coli imp = experiment: broth dilution MIC, E. coli EC882; details: Escherichia coli
From the text: as §1

[3] = system: BS1723 B. subtilis BS168 WT wild type; experiment: broth dilution MIC, B. subtilis BS1723; details: Bacillus subtilis, BS1723 B. subtilis BS168 WT wild type; read-out: MIC
From the text: as §1

BS1725 B. subtilis ermC = experiment: broth dilution MIC, B. subtilis BS1725; details: Bacillus subtilis
From the text: as §1

[4] = S. aureus (Neuman, clinical isolate), round 2
[5] = ATCC29213, S. aureus ATCC 29213, read-out: MIC S. aureus (ATCC 29213)
[6] = S. aureus 506, read-out: MIC S. aureus (506)
[7] = S. aureus 1708, read-out: MIC S. aureus (1708)
[8] = USA300, S. aureus USA300, read-out: MIC S. aureus (USA300)
[9] = S. pneumoniae 160, read-out: MIC S. pneumonae (160)
[10] = S. pneumoniae 1509, read-out: MIC S. pneumoniae (1509)
[11] = S. pneumoniae 1533, read-out: MIC S. pneumoniae (1533)
[12] = S. pneumoniae 1537, read-out: MIC S. pneumoniae (1537)
[13] = S. pneumoniae 49619, read-out: MIC S. pneumoniae (49619)
[14] = H. influenzae 49247, read-out: MIC H. influenzae (49247)
[15] = H. influenzae 49766, read-out: MIC H. influenzae (49766)

Row | Compound | MIC [1, 4] [µg/mL] | MIC (E. coli (MC4100); round 2, read-out: MIC) [µg/mL] | MIC (E. coli strains) [µg/mL] | MIC (S. aureus strains; [5]) [µg/mL] | MIC (S. aureus strains; [6]) [µg/mL] | MIC (S. aureus strains; [7]) [µg/mL] | MIC (S. aureus strains; [8]) [µg/mL] | MIC (S. pneumoniae strains; [9]) [µg/mL] | MIC (S. pneumoniae strains; [10]) [µg/mL] | MIC (S. pneumoniae strains; [11]) [µg/mL] | MIC (S. pneumoniae strains; [12]) [µg/mL] | MIC (S. pneumoniae strains; [13]) [µg/mL] | MIC (E. faecalis strains) [µg/mL] | MIC (A. baumannii strains) [µg/mL] | MIC (K. pneumoniae strains) [µg/mL] | MIC (H. influenzae strains; [14]) [µg/mL] | MIC (H. influenzae strains; [15]) [µg/mL] | MIC [2] [µg/mL] | MIC (EC107 E. coli ATCC25922) [µg/mL] | MIC (EC878 E. coli tolC) [µg/mL] | further results
1 | CC[C@H]1OC(=O)CC(=O)[C@H](C)[C@@H](O[C@@H]2OC(C)CC(N(C)C)C2O)[C@](C)(OC)C[C@@H](C)CN[C@H](C)[C@H]2N(CCCCn3cc(-c4cccc(N)c4)nn3)C(=O)O[C@]12C (stereo partly shown) [FSM-56133] | 4 (≈ 4.91 µM) | 8 (≈ 9.83 µM) | 8 (≈ 9.83 µM) | 4 (≈ 4.91 µM) | > 32 | 4 (≈ 4.91 µM) | 8 (≈ 9.83 µM) | 0.5 (≈ 0.614 µM) | > 32 | > 32 | > 32 | 1 (≈ 1.23 µM) | 0.5 (≈ 0.614 µM) | 32 (≈ 39.3 µM) | 2 (≈ 2.46 µM) | 1 (≈ 1.23 µM) | 4 (≈ 4.91 µM) |  |  |  | 
2 | CC[C@H]1OC(=O)CC(=O)[C@H](C)[C@@H](O[C@@H]2OC(C)CC(N(C)C)C2O)[C@](C)(OC)C[C@@H](C)CN[C@H](C)[C@H]2N(CCCCn3cc(-c4ccccn4)nn3)C(=O)O[C@]12C (stereo partly shown) [FSM-56139] | 16 (≈ 20 µM) | 32 (≈ 40 µM) |  |  |  |  |  |  |  |  |  |  |  |  |  |  |  |  |  |  | 
3 | CC[C@H]1OC(=O)[C@H](Cc2ccccc2)C(=O)[C@H](C)[C@@H](O[C@@H]2OC(C)CC(N(C)C)C2O)[C@](C)(OC)C[C@@H](C)CN[C@H](C)[C@H]2N(CCCCn3cc(-c4cccc(N)c4)nn3)C(=O)O[C@]12C (stereo partly shown) [FSM-56158] | 8 (≈ 8.85 µM) | 32 (≈ 35.4 µM) |  |  |  |  |  |  |  |  |  |  |  |  |  |  |  |  |  |  | 
4 | CC[C@H]1OC(=O)[C@H](C)C(=O)C[C@@H](O[C@@H]2OC(C)CC(N(C)C)C2O)[C@](C)(OC)C[C@@H](C)CN[C@H](C)[C@H]2N(CCCCn3cc(-c4cccc(N)c4)nn3)C(=O)O[C@]12C (stereo partly shown) [FSM-10781] |  |  | 32 (≈ 39.3 µM) | > 32 | > 32 | > 32 | > 32 | 2 (≈ 2.46 µM) | > 32 | > 32 | > 32 | 8 (≈ 9.83 µM) | 8 (≈ 9.83 µM) | 32 (≈ 39.3 µM) | 8 (≈ 9.83 µM) | 1 (≈ 1.23 µM) | 8 (≈ 9.83 µM) | > 32 | 16 (≈ 19.7 µM) | 1 (≈ 1.23 µM) | MIC (EC882 E. coli imp): 0.25 µg/mL (≈ 0.307 µM); MIC [3]: > 32 µg/mL; MIC (BS1725 B. subtilis ermC; BS1725 B. subtilis ermC (+ery)): > 32 µg/mL; MIC (BS1725 B. subtilis ermC; BS1725 B. subtilis ermC (−ery)): > 32 µg/mL
5 | CC[C@H]1OC(=O)[C@H](C)C(=O)C[C@@H](O[C@@H]2OC(C)CC(N(C)C)C2O)[C@@](C)(OC)C[C@@H](C)CN[C@H](C)[C@H]2N(CCCCn3cc(-c4cccc(N)c4)nn3)C(=O)O[C@]12C (stereo partly shown) [FSM-30502] |  |  | > 32 | > 32 | > 32 | > 32 | > 32 | > 32 | > 32 | > 32 | > 32 | > 32 | > 32 | > 32 | > 32 | 16 (≈ 19.7 µM) | > 32 | > 32 | > 32 | > 32 | MIC (EC882 E. coli imp): > 32 µg/mL; MIC [3]: > 32 µg/mL; MIC (BS1725 B. subtilis ermC; BS1725 B. subtilis ermC (+ery)): > 32 µg/mL; MIC (BS1725 B. subtilis ermC; BS1725 B. subtilis ermC (−ery)): > 32 µg/mL
6 | CC[C@H]1OC(=O)[C@H](C)C(=O)[C@H](C)[C@@H](O[C@@H]2OC(C)CC(N(C)C)C2O)[C@](C)(OC)C[C@@H](C)CN[C@H](C)[C@H]2N(CCCCCn3cc(-c4ccccn4)nn3)C(=O)O[C@]12C (stereo partly shown) [FSM-40350] |  |  |  |  |  |  |  |  |  |  |  |  |  |  |  |  |  |  |  |  | MIC ([1]; S. aureus (Newman, clinical isolate), round 1): 2 µg/mL (≈ 2.42 µM); MIC (E. coli (MC4100); round 1, read-out: MIC): 16 µg/mL (≈ 19.3 µM)
